What was measured:
Format in all cases: in vivo
[1] = system: Abutilon theophrasti (ABUTH); assay: Post-emergence Test (glasshouse, percentage damage to the plant); conditions: post-emergence spray, 1000 g/ha unless otherwise stated, evaluated after 13 days
Method in brief: (§1)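 Seeds are sown in standard soil under controlled glasshouse conditions. The pots are then sprayed at 1000 g/ha, unless otherwise stated, with compound in acetone/water (50:50) containing 0.5% Tween 20. After 13 days further growth, percentage plant damage is scored from 1 (0-20%) to 5 (81-100%).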

[2] = system: Amaranthus retoflexus (AMARE); assay: as above; conditions: post-emergence spray, 1000 g/ha unless otherwise stated, evaluated after 13 days
Method in brief: as §1

[3] = system: Echinochloa crus-galli (ECHCG); assay: as above; conditions: post-emergence spray, 1000 g/ha unless otherwise stated, evaluated after 13 days
Method in brief: as §1

[4] = system: Ipomoea hederacea (IPOHE); assay: as above; conditions: post-emergence spray, 1000 g/ha unless otherwise stated, evaluated after 13 days
Method in brief: as §1

Setaria faberi (SETFA) [5] = assay: as above; conditions: post-emergence spray, 1000 g/ha unless otherwise stated, evaluated after 13 days
Method in brief: as §1

Zea mays (ZEAMX) [6] = assay: as above; conditions: post-emergence spray, 1000 g/ha unless otherwise stated, evaluated after 13 days
Method in brief: as §1

[7] = system: Amaranthus retoflexus (AMARE); assay: Pre-emergence Test (glasshouse, percentage damage to the plant); conditions: 1000 g/ha unless otherwise stated, five-point scale
Setaria faberi (SETFA) [8] = assay: as above; conditions: 1000 g/ha unless otherwise stated, five-point scale
[9] = system: Echinochloa crus-galli (ECHCG); assay: as above; conditions: 1000 g/ha unless otherwise stated, five-point scale
[10] = system: Ipomoea hederacea (IPOHE); assay: as above; conditions: 1000 g/ha unless otherwise stated, five-point scale
[11] = system: Abutilon theophrasti (ABUTH); assay: as above; conditions: 1000 g/ha unless otherwise stated, five-point scale
Zea mays (ZEAMX) [12] = assay: as above; conditions: 1000 g/ha unless otherwise stated, five-point scale

CCn1c(C)c(-c2ccn(C)c(=O)c2)c(=O)c(C(=O)O)c1-c1ccc(Cl)c(Cl)c1 [Compound 58, 2-(3,4-dichlorophenyl)-1-ethyl-6-methyl-5-(1-methyl-2-oxo-4-pyridyl)-4-oxo-pyridine-3-carboxylic acid]
1 (1=0-20%): Post-emergence Test ABUTH, percentage damage to the plant (five-point scale) [1] | Post-emergence Test AMARE, percentage damage to the plant (five-point scale) [2] | Post-emergence Test ECHCG, percentage damage to the plant (five-point scale) [3] | Post-emergence Test IPOHE, percentage damage to the plant (five-point scale) [4] | Post-emergence Test SETFA, percentage damage to the plant (five-point scale) (Setaria faberi (SETFA) [5]) | Post-emergence Test ZEAMX, percentage damage to the plant (five-point scale) (Zea mays (ZEAMX) [6]) | percentage damage to the plant, AMARE [7] | percentage damage to the plant, SETFA (Setaria faberi (SETFA) [8]) | percentage damage to the plant, ECHCG [9] | percentage damage to the plant, IPOHE [10] | percentage damage to the plant, ABUTH [11] | percentage damage to the plant, ZEAMX (Zea mays (ZEAMX) [12])

CCn1c(C)c(-c2cc(Cl)cc(C(F)(F)F)c2)c(=O)c(C(=O)O)c1-c1ccc(Cl)c(Cl)c1 [Compound 82, 5-[3-chloro-5-(trifluoromethyl)phenyl]-2-(3,4-dichlorophenyl)-1-ethyl-6-methyl-4-oxo-pyridine-3-carboxylic acid]
2 (2=21-40%): Post-emergence Test ABUTH, percentage damage to the plant (five-point scale) [1] | percentage damage to the plant, AMARE [7] | percentage damage to the plant, SETFA (Setaria faberi (SETFA) [8])
1 (1=0-20%): Post-emergence Test AMARE, percentage damage to the plant (five-point scale) [2] | Post-emergence Test ECHCG, percentage damage to the plant (five-point scale) [3] | Post-emergence Test IPOHE, percentage damage to the plant (five-point scale) [4] | Post-emergence Test SETFA, percentage damage to the plant (five-point scale) (Setaria faberi (SETFA) [5]) | Post-emergence Test ZEAMX, percentage damage to the plant (five-point scale) (Zea mays (ZEAMX) [6]) | percentage damage to the plant, ECHCG [9] | percentage damage to the plant, IPOHE [10] | percentage damage to the plant, ABUTH [11] | percentage damage to the plant, ZEAMX (Zea mays (ZEAMX) [12])

CCn1c(C)c(-c2cccc(C#N)c2)c(=O)c(C(=O)O)c1-c1ccc(Cl)c(Cl)n1 [Compound 147, 5-(3-cyanophenyl)-2-(5,6-dichloro-2-pyridyl)-1-ethyl-6-methyl-4-oxo-pyridine-3-carboxylic acid]
0: Post-emergence Test AMARE, percentage damage to the plant (five-point scale) [2] | percentage damage to the plant, AMARE [7] | percentage damage to the plant, SETFA (Setaria faberi (SETFA) [8]) | percentage damage to the plant, ECHCG [9] | percentage damage to the plant, IPOHE [10] | percentage damage to the plant, ABUTH [11] | percentage damage to the plant, ZEAMX (Zea mays (ZEAMX) [12])
2 (2=21-40%): Post-emergence Test ABUTH, percentage damage to the plant (five-point scale) [1] | Post-emergence Test ECHCG, percentage damage to the plant (five-point scale) [3] | Post-emergence Test IPOHE, percentage damage to the plant (five-point scale) [4] | Post-emergence Test SETFA, percentage damage to the plant (five-point scale) (Setaria faberi (SETFA) [5]) | Post-emergence Test ZEAMX, percentage damage to the plant (five-point scale) (Zea mays (ZEAMX) [6])

CCOc1cc(-c2c(C)n(CC)c(-c3ccc(Cl)c(Cl)c3)c(C(=O)O)c2=O)ccc1C(F)(F)F [Compound 65, 2-(3,4-dichlorophenyl)-5-[3-ethoxy-4-(trifluoromethyl)phenyl]-1-ethyl-6-methyl-4-oxo-pyridine-3-carboxylic acid]
1 (1=0-20%): Post-emergence Test ABUTH, percentage damage to the plant (five-point scale) [1] | Post-emergence Test AMARE, percentage damage to the plant (five-point scale) [2] | Post-emergence Test ECHCG, percentage damage to the plant (five-point scale) [3] | Post-emergence Test IPOHE, percentage damage to the plant (five-point scale) [4] | Post-emergence Test SETFA, percentage damage to the plant (five-point scale) (Setaria faberi (SETFA) [5]) | Post-emergence Test ZEAMX, percentage damage to the plant (five-point scale) (Zea mays (ZEAMX) [6]) | percentage damage to the plant, AMARE [7] | percentage damage to the plant, SETFA (Setaria faberi (SETFA) [8]) | percentage damage to the plant, ECHCG [9] | percentage damage to the plant, IPOHE [10] | percentage damage to the plant, ABUTH [11] | percentage damage to the plant, ZEAMX (Zea mays (ZEAMX) [12])

CCc1ccc(-c2c(C)n(CC)c(-c3ccc(Cl)c(Cl)c3)c(C(=O)O)c2=O)cc1 [Compound 89, 2-(3,4-dichlorophenyl)-1-ethyl-5-(4-ethylphenyl)-6-methyl-4-oxo-pyridine-3-carboxylic acid]
1 (1=0-20%): Post-emergence Test AMARE, percentage damage to the plant (five-point scale) [2] | Post-emergence Test ECHCG, percentage damage to the plant (five-point scale) [3] | Post-emergence Test SETFA, percentage damage to the plant (five-point scale) (Setaria faberi (SETFA) [5]) | Post-emergence Test ZEAMX, percentage damage to the plant (five-point scale) (Zea mays (ZEAMX) [6]) | percentage damage to the plant, AMARE [7] | percentage damage to the plant, ECHCG [9] | percentage damage to the plant, IPOHE [10] | percentage damage to the plant, ABUTH [11] | percentage damage to the plant, ZEAMX (Zea mays (ZEAMX) [12])
3 (3=41-60%): Post-emergence Test ABUTH, percentage damage to the plant (five-point scale) [1] | Post-emergence Test IPOHE, percentage damage to the plant (five-point scale) [4]
4 (4=61-80%): percentage damage to the plant, SETFA (Setaria faberi (SETFA) [8])

— patent US12660819B2, “Herbicidal derivatives” (SYNGENTA CROP PROTECTION AG, priority 2020, dated 2026)
